# Positions count from the first letter of the chain named.
# Experiments:
# Format in all cases: cell-based
# PC-3CTRΔESS cells = experiment: Matrigel in vitro invasion assay; details: 50 nM CT, 48 h
# Procedure: Invasion experiments were conducted in Matrigel™ invasion chambers as previously described (Sabbisetti et al., 2005).
# CT increases invasiveness, and even induces an invasive phenotype in non-invasive prostate cancer cells. The role of PDZ-binding motif in CT-stimulated invasion was examined. FIG. 2C depicts CTR-C PDZ-binding motif mutation and effects on cell invasion. PC-3V, PC-3 CTRwt and PC-3 CTRΔESS cells were added to upper insert of invasion chambers with or without 50 nM CT, and cells that passed through the Matrigel™ barrier were counted after 48 h. The results are expressed as mean number of invaded cells per 400× field ±SEM (n=6; *p<0.05 (PC-3V v PC-3CTR-wt); $ p<0.05 (PC-3CTR-wt v PC-3CTRΔESS); $$-p<0.05 (PC-3CTRwt+CT v PC-3CTRΔESS+CT) (one-way ANOVA and Newman-Keul's test)). Expression of CTRwt in PC-3 cells increased invasion by 2.5-fold (FIG. 2C).
# CTR-ZO-1 interaction [1] = target: T1, CTR-ZO-1 interaction (Homo sapiens, UniProt P30988); experiment: In situ proximity ligation assay (PLA); details: PC-3CTRwt cells
# T1 construct: PCR generated full length CTRwt and CTRΔESS cDNAs were cloned directionally into pcDNA3.1 mammalian expression vector; FLAG (N); expressed in transfected cells; host or cells: PC-31 / PC-3 cells stably expressing FLAG-CTRwt; ZO-1 is the cells' own
# T1 sequence (P30988 25-474): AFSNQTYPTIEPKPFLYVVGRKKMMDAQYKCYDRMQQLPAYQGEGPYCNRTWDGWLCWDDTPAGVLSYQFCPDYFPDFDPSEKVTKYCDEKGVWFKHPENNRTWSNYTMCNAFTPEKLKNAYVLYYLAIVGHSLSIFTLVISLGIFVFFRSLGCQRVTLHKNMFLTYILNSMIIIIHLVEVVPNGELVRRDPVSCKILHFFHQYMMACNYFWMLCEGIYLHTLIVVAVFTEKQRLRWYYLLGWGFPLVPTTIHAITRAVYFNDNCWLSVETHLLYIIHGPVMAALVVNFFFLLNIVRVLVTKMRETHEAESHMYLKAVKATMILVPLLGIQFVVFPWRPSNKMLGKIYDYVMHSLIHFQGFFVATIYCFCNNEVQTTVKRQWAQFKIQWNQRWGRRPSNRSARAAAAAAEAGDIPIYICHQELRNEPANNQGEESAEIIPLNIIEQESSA
# Procedure: (§1) Fixed PC cells or tissues were immunolabeled with primary antibodies (anti-rabbit ZO-1 serum and anti-goat CTR serum) for overnight at 4° C. The secondary antibodies with attached PLA probes were supplied in the Duolink™ kit (Olink Bioscience, Uppsala, Sweden). CTR-ZO-1 interaction was observed by confocal microscopy at 400×. A red fluorescent dot indicated the two proteins are within 35 nm distance. The number of dots per cell was determined by Blobfinder™ image analysis software (Allalou et al., 2009).
# (§2) Next, CTR-ZO-1 interaction was examined in PC-3CTRwt cells. […] Each dot represents an interaction between activated CTR and ZO-1, detected by in situ PLA™ using the Duolink® kit. Nuclei were stained with DAPI. The graph presents quantitative data of CTR-ZO-1 interactions in three separate but identical experiments (mean±SEM; n=6, p<0.001, paired t-test). […] Next, this phenomenon was examined in LNCaP cells, which are androgen-responsive and endogenously express CTR but not CT (Karpova et al., 2006). […] Finally, non-metastatic and metastatic PC specimens were examined in a similar experiment.
# (§3) Since CTR directly interacts with ZO-1 through PDZ domain, whether CT-induced endocytosis of ZO-1 is caused by CTR-mediated events prior to or subsequent to CTR-ZO-1 interaction was tested. To determine the time course of CTR-ZO-1 interaction, in situ PLA assay was used (FIG. 15D). […] Representative micrographs are shown of CTR-ZO-1 interactions in PC-3CTRwt cells at various time periods (0-300 seconds) after CT stimulus. Each highlighted dot represents an interaction between activated CTR and ZO-1, detected by in situ PLA™ using the Duolink® kit. Nuclei were stained with DAPI. The line graph presents the mean±SEM of dots at each time point (n=6). […] Considering that ZO-1 endocytosis was observed after 1 minute of CT stimulus, it is conceivable that CTR-mediated events subsequent to CTR-ZO-1 interaction may be associated with TJ protein endocytosis.
# CTR-ZO-1 interaction [2] = experiment: In situ proximity ligation assay (PLA); details: LNCaP cells, CT 50 nM, 30 seconds
# Procedure: as §1, §2, §3
# CTR-ZO-1 interaction [3] = target: T2, CTR-ZO-1 interaction (Homo sapiens, UniProt P30988, E471A/S472A/S473A); experiment: In situ proximity ligation assay (PLA); details: PC-3CTRΔESS cells, with or without CT
# T2 construct: PCR generated full length CTRwt and CTRΔESS cDNAs were cloned directionally into pcDNA3.1 mammalian expression vector; FLAG (N); expressed in transfected cells; host or cells: PC-31 / PC-3 cells stably expressing FLAG-CTRwt; ZO-1 is the cells' own
# T2 sequence (P30988 with tags, fused parts or gaps): T1 sequence (P30988 25-474) with E447A, S448A, S449A
# Procedure: as §1, §2, §3
substance,measurement,setting,value
calcitonin [CT],increase in invasion,PC-3CTRΔESS cells,did not
same,time of peak CTR-ZO-1 interaction after CT stimulus,CTR-ZO-1 interaction [1],30 s
same,CTR-ZO-1 interactions (PLA dots),"CTR-ZO-1 interaction [1]; 50 nM CT, 30 seconds",eighty-fold increase
same,CTR-ZO-1 interactions (PLA dots),CTR-ZO-1 interaction [2],strong interaction
same,CTR-ZO-1 interactions (PLA dots),CTR-ZO-1 interaction [3],no CTR-ZO-1 interactions were observed
